Measurements from US20240174634A1, “Aldehyde Dehydrogenase Inhibitors and Their Therapeutic Use” (priority 2020, published 2024).

Tests used:
ALDH1A2 = target: T1, ALDH1A2 (Homo sapiens, UniProt O94788); assay: Selectivity biochemical assay, NAD(P)H-Glo Detection System
T1 construct: His-tag; made in house; host or cells: E. coli Rosetta (DE3)
T1 sequence (O94788 1-518): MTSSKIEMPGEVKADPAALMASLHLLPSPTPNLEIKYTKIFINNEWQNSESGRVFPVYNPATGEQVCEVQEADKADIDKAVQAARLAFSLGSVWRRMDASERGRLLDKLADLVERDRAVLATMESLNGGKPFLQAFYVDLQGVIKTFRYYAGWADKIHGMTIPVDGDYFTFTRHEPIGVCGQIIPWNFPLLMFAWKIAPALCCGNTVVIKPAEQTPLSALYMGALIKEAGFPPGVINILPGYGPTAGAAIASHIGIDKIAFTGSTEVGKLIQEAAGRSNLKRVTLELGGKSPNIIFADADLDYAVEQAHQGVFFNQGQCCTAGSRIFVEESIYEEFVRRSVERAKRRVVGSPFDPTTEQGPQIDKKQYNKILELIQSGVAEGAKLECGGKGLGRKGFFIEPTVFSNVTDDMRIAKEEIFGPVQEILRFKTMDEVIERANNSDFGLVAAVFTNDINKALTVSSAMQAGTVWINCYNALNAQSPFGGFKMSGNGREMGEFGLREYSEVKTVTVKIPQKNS
Description: (§1) Cloning: Open reading frames corresponding to the protein coding sequences of full length human ALDH1A1 (Uniprot ID P00352), ALDH1A2 (094788) and ALDH1A3 (P47895) were polymerase chain reaction (PCR) amplified from human cDNA and inserted into the multi-cloning sites of the commercially available (Novagen) E. coli expression vectors pET47b (ALDH1A1, EcoRI restriction site; ALDH1A2, BamHI and EcoRI sites) or pET28a (ALDH1A3, NdeI and BamHI sites), using standard molecular genetic techniques. Recombinant DNA products were sequence verified prior to use in expression studies.
(§2) Expression: Expression constructs were transformed into the E. coli strain Rosetta (DE3) (Merck) and individual colonies used to inoculate 10 mL lysogen broth (LB) medium supplemented with kanamycin and chloramphenicol at 50 μg/mL and 34 μg/mL, respectively. Cultures were grown to saturation overnight at 37° C., prior to being used to sub-inoculate fresh 1 L LB medium cultures (plus antibiotics, as before). 1 L cultures were grown at 37° C., 200 rpm, throughout the day until the optical density at 600 nm (OD600) reached ˜0.8, at which point growth temperature was reduced to 18° C. and 1 mM isopropyl β-d-1-thiogalacto pyranoside (IPTG) added to induce protein expression.
(§3) Cultures were left overnight (at least 16 h) under these conditions and the following day harvested by centrifugation (4000 G, 10 minutes). Culture supernatant was discarded and cell pellets stored at −80° C. until further processing.
(§4) Purification: Cell pellets were thawed on ice, re-suspended in Ni Affinity Buffer A (20 mM HEPES pH 7.5, 300 mM NaCl, 20 mM imidazole, 1 mM tris(2-carboxyethyl)phosphine (TCEP)) with protease inhibitors (cOmplete Ultra protease inhibitor, Roche), and lysed by sonication. Lysates were clarified by centrifugation at 18,000 G, 4° C., for 40 minutes, and loaded directly onto a pre-equilibrated (Buffer A) 5 mL HisTrap Fast Flow column (GE Healthcare) by way of an AKTA Fast Protein Liquid Chromatography (FPLC) system. The column was sequentially treated with 6 column volumes (CV) 100% Buffer A, 8 CV of 90% Buffer A:10% Buffer B (20 mM 4-(2-hydroxyethyl)-1-piperazineethanesulfonic acid (HEPES) pH 7.5, 300 mM NaCl, 500 mM imidazole, 1 mM TCEP) and finally a linear gradient from 10-70% Buffer B over 8 CV to elute recombinant His-tagged protein. Relevant fractions (as measured by 280 nm absorbance) collected during elution were pooled and subjected to further purification by size exclusion chromatography (Superdex 200 26/600, GE Healthcare, running buffer 20 mM 2-(carbamoylmethylamino)ethanesulfonic acid (ACES) pH 7.5, 1 mM TCEP). Relevant fractions from this step were pooled, aliquoted, and stored at −80° C. until required for compound profiling assays.
(§5) Materials: ALDH2 was purchased from Abnova. Tris(hydroxymethyl)aminomethane (Tris) was purchased from MP Biomedicals. TCEP, ethylenediaminetetraacetic acid (EDTA), propionaldehyde, DMSO and Tween-20 were purchased from Sigma. Nicotinamide adenine dinucleotide (NAD) was obtained from Abcam. The NAD(P)H-Glo™ Detection System was purchased from Promega. White, non-binding surface, 384 well plates were supplied by Corning (#3574).
(§6) Method: Inhibition of ALDH1A3 was assessed using the NAD(P)H-Glo™ Detection System (Cat. No. G9062) from Promega. This assay detects the production of NADH from NAD by ALDH1A3 via the coupled enzymatic conversion of a proluciferin reductase substrate to generate a luminescent signal. Inhibition of ALDH1A3 by small molecule inhibitors will result in reduction or abrogation of luminescence signal increase above background. Inhibition of ALDH1A1, ALDH1A2 and ALDH2 (selectivity assays) were assessed using the same assay.
(§7) Compounds were dosed into Corning 384 well assay plates using an Echo acoustic dispenser to give 10 point curves in a 3-fold dilution series. Compounds were dispensed from a 20 mM DMSO stock and initially screened at a top concentration of 20 μM (ALDH1A3) or 250 μM (ALDH1A1, ALDH1A2 & ALDH2). […]

ALDH1A1 = target: T2, ALDH1A1 (Homo sapiens, UniProt P00352); assay: as above
T2 construct: His-tag; made in house; host or cells: E. coli Rosetta (DE3)
T2 sequence (P00352 1-501): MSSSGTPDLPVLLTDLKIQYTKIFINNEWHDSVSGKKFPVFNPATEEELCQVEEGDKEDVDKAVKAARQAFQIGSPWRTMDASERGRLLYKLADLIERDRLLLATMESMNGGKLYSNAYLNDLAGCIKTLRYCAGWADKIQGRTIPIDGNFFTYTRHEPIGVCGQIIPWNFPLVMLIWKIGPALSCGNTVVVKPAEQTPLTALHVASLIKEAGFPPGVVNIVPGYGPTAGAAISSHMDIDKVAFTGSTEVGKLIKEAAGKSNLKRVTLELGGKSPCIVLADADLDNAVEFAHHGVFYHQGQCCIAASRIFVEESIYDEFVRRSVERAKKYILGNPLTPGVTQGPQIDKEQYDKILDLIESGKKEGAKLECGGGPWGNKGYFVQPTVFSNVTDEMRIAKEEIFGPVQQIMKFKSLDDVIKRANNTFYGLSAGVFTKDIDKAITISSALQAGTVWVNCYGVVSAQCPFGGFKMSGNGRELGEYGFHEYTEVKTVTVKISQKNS
Description: as §1, §2, §3, §4, §5, §6, §7

Row | SMILES | IC50 (ALDH1A2) [µM] | IC50 (ALDH1A1) [µM]
1 | O=C1CCc2cc(OCCN3CCCC3c3cccc(F)c3)ccc2N1 (stereo not drawn) [ALDHI-2001, 6-[2-[2-(3-fluorophenyl)pyrrolidin-1-yl]ethoxy]-3,4-dihydro-1H-quinolin-2-one] | 0.1 to 1 | ≥ 100
2 | O=C1CCc2cc(OCCN3CCCC3c3ccccc3F)ccc2N1 (stereo not drawn) [ALDHI-2002, 6-[2-[2-(2-fluorophenyl)pyrrolidin-1-yl]ethoxy]-3,4-dihydro-1H-quinolin-2-one] | 10 to 100 | ≥ 100
3 | O=C1CCc2cc(OCCN3CCCC3c3ccc(F)cc3)ccc2N1 (stereo not drawn) [ALDHI-2003, 6-[2-[2-(4-fluorophenyl)pyrrolidin-1-yl]ethoxy]-3,4-dihydro-1H-quinolin-2-one] | 1 to 10 | ≥ 100
4 | O=C1CCc2cc(OCCN3CCCC3c3ccncc3)ccc2N1 (stereo not drawn) [ALDHI-2004, 6-[2-[2-(4-pyridyl)pyrrolidin-1-yl]ethoxy]-3,4-dihydro-1H-quinolin-2-one] | 10 to 100 | ≥ 100
5 | O=C1CCc2cc(OCCN3CCCC3c3cccnc3)ccc2N1 (stereo not drawn) [ALDHI-2005, 6-[2-[2-(3-pyridyl)pyrrolidin-1-yl]ethoxy]-3,4-dihydro-1H-quinolin-2-one] | 10 to 100 | ≥ 100
6 | O=C1CCc2cc(OCCN3CCCC3c3ccccn3)ccc2N1 (stereo not drawn) [ALDHI-2006, 6-[2-[2-(2-pyridyl)pyrrolidin-1-yl]ethoxy]-3,4-dihydro-1H-quinolin-2-one] | 1 to 10 | ≥ 100
7 | O=C1CCc2cc(OCCN3CCC[C@@H]3c3cccc(F)c3)ccc2N1 [ALDHI-2007, 6-[2-[(2R)-2-(3-fluorophenyl)pyrrolidin-1-yl]ethoxy]-3,4-dihydro-1H-quinolin-2-one] | 0.1 to 1 | ≥ 100
8 | O=C1CSc2cc(OCCN3CCCC3c3cccc(F)c3)ccc2N1 (stereo not drawn) [ALDHI-2008, 7-[2-[2-(3-fluorophenyl)pyrrolidin-1-yl]ethoxy]-4H-1,4-benzothiazin-3-one] | 10 to 100 | ≥ 100
9 | O=C1COc2cc(OCCN3CCCC3c3cccc(F)c3)ccc2N1 (stereo not drawn) [ALDHI-2009, 7-[2-[2-(3-fluorophenyl)pyrrolidin-1-yl]ethoxy]-4H-1,4-benzoxazin-3-one] | 1 to 10 | ≥ 100
10 | Cc1ccc(C2CCCN2CCOc2ccc3c(c2)CCC(=O)N3)cc1 (stereo not drawn) [ALDHI-2010, 6-[2-[2-(p-tolyl)pyrrolidin-1-yl]ethoxy]-3,4-dihydro-1H-quinolin-2-one] | ≥ 100 | ≥ 100
11 | Cc1cccc(C2CCCN2CCOc2ccc3c(c2)CCC(=O)N3)c1 (stereo not drawn) [ALDHI-2011, 6-[2-[2-(m-tolyl)pyrrolidin-1-yl]ethoxy]-3,4-dihydro-1H-quinolin-2-one] | 10 to 100 | ≥ 100
12 | Cc1ccccc1C1CCCN1CCOc1ccc2c(c1)CCC(=O)N2 (stereo not drawn) [ALDHI-2012, 6-[2-[2-(o-tolyl)pyrrolidin-1-yl]ethoxy]-3,4-dihydro-1H-quinolin-2-one] | ≥ 100 | ≥ 100
13 | O=C1CCc2cc(OCCN3CCCC3c3cccs3)ccc2N1 (stereo not drawn) [ALDHI-2013, 6-[2-[2-(2-thienyl)pyrrolidin-1-yl]ethoxy]-3,4-dihydro-1H-quinolin-2-one] | 1 to 10 | ≥ 100
14 | O=C1CCc2cc(OCCN3CCCC3c3ccsc3)ccc2N1 (stereo not drawn) [ALDHI-2014, 6-[2-[2-(3-thienyl)pyrrolidin-1-yl]ethoxy]-3,4-dihydro-1H-quinolin-2-one] | ≥ 100 | ≥ 100
15 | CCn1cc(C2CCCN2CCOc2ccc3c(c2)CCC(=O)N3)cn1 (stereo not drawn) [ALDHI-2016, 6-[2-[2-(1-ethylpyrazol-4-yl)pyrrolidin-1-yl]ethoxy]-3,4-dihydro-1H-quinolin-2-one] | ≥ 100 | ≥ 100
16 | O=C1CCc2cc(OCCN3CCC[C@H]3c3cccc(F)c3)ccc2N1 [ALDHI-2018, 6-[2-[(2S)-2-(3-fluorophenyl)pyrrolidin-1-yl]ethoxy]-3,4-dihydro-1H-quinolin-2-one] | 0.1 to 1 | ≥ 100
17 | O=C1CCc2cc(OCCN3CCCC3c3ccccc3)ccc2N1 (stereo not drawn) [ALDHI-2019, 6-[2-(2-phenylpyrrolidin-1-yl)ethoxy]-3,4-dihydro-1H-quinolin-2-one] | 0.1 to 1 | ≥ 100
18 | O=C1CCCc2cc(OCCN3CCCC3c3cccc(F)c3)ccc2N1 (stereo not drawn) [ALDHI-2020, 7-[2-[2-(3-fluorophenyl)pyrrolidin-1-yl]ethoxy]-1,3,4,5-tetrahydro-1-benzazepin-2-one] | 1 to 10 | ≥ 100
19 | O=C1CCc2cc(OCCN3CCC3c3cccc(F)c3)ccc2N1 (stereo not drawn) [ALDHI-2021, 6-[2-[2-(3-fluorophenyl)azetidin-1-yl]ethoxy]-3,4-dihydro-1H-quinolin-2-one] | 1 to 10 | ≥ 100
20 | O=c1ccc2cc(OCCN3CCCC3c3cccc(F)c3)ccc2[nH]1 (stereo not drawn) [ALDHI-2022, 6-[2-[2-(3-fluorophenyl)pyrrolidin-1-yl]ethoxy]-1H-quinolin-2-one] | 1 to 10 | ≥ 100
21 | O=C1CCc2cc(OCCn3nccc3-c3cccc(F)c3)ccc2N1 [ALDHI-2023, 6-[2-[5-(3-fluorophenyl)pyrazol-1-yl]ethoxy]-3,4-dihydro-1H-quinolin-2-one] | < 0.1 | ≥ 100
22 | Cn1cc(C2CCCN2CCOc2ccc3c(c2)SCC(=O)N3)cn1 (stereo not drawn) [ALDHI-2026, 7-[2-[2-(1-methylpyrazol-4-yl)pyrrolidin-1-yl]ethoxy]-4H-1,4-benzothiazin-3-one] | ≥ 100 | ≥ 100
23 | O=C1CSc2cc(OCCN3CCCC3c3ccccn3)ccc2N1 (stereo not drawn) [ALDHI-2027, 7-[2-[2-(2-pyridyl)pyrrolidin-1-yl]ethoxy]-4H-1,4-benzothiazin-3-one] | 10 to 100 | ≥ 100
24 | O=C1CSc2cc(OCCN3CCCC3c3cccnc3)ccc2N1 (stereo not drawn) [ALDHI-2028, 7-[2-[2-(3-pyridyl)pyrrolidin-1-yl]ethoxy]-4H-1,4-benzothiazin-3-one] | ≥ 100 | ≥ 100
